Data taken from patent US12617797B2, “Substituted pyrazolo [1,5-a]pyrimidines having multimodal activity against pain” (ESTEVE PHARMACEUTICALS, S.A., priority 2020, dated 2026).

What was measured:
[1] = biological target: Human α2δ-1 subunit of Cav2.2 calcium channel (Homo sapiens, UniProt P54289); assay: Human α2δ-1 subunit of Cav2.2 calcium channel assay ([3H]-gabapentin binding); conditions: binding to the α2δ-1 subunit of voltage-gated calcium channels expressed as Ki; + also covers inhibition between 1% and 50%
Sequence of Human α2δ-1 subunit of Cav2.2 calcium channel (P54289 25-1103): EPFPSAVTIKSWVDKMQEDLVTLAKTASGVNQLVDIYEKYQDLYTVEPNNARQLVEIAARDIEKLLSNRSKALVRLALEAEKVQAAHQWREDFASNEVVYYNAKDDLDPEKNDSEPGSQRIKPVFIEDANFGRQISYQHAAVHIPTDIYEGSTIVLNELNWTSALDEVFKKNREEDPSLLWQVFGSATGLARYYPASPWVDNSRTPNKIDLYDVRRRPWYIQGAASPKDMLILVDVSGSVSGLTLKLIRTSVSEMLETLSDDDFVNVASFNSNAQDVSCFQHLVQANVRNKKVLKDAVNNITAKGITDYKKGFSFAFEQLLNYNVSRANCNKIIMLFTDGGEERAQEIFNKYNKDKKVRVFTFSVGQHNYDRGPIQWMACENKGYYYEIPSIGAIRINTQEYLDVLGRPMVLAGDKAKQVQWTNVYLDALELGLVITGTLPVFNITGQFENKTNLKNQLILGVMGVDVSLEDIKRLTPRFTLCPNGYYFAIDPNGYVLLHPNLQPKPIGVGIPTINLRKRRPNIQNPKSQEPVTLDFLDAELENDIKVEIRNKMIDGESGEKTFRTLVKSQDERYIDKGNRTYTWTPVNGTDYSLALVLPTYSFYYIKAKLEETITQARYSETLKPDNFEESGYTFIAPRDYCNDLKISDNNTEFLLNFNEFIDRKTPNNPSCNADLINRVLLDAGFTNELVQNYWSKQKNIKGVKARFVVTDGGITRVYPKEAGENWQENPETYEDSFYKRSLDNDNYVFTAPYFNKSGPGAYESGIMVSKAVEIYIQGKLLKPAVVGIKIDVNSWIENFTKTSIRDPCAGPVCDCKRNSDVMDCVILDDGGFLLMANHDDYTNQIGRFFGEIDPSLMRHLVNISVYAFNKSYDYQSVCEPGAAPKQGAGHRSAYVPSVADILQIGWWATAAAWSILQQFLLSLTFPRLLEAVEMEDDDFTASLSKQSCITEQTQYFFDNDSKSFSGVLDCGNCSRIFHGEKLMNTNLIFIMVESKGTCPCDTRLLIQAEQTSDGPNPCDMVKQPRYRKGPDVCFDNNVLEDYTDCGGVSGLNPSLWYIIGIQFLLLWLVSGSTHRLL
Summary of the method: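 Membranes enriched in human α2δ-1 incubated with 15 nM [3H]-gabapentin in 10 mM Hepes-KOH pH 7.4, 60 min at 27 °C; nonspecific binding defined with 10 μM pregabalin. Filtration and scintillation counting; % inhibition at 1 or 10 μM, or Ki from five concentrations.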

Human σ1 receptor = biological target: T1, Human σ1 receptor (Homo sapiens, UniProt Q99720); assay: Human σ1 receptor radioligand assay ([3H](+)-pentazocine binding, transfected HEK-293 membranes); conditions: binding to σ1 receptor expressed as Ki; + also covers inhibition between 1% and 50%; read-out: σ-1 binding
T1 construct: expressed in transfected cells; host or cells: HEK-293
T1 sequence (Q99720 whole entry): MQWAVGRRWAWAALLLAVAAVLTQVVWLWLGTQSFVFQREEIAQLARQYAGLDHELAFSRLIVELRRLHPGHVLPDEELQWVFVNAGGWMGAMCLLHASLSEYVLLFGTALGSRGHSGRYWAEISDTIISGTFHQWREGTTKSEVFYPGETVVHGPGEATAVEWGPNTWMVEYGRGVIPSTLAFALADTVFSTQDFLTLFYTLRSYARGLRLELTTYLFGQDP
Summary of the method: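 Membranes (7 μg) were incubated with 5 nM [3H](+)-pentazocine in 50 mM Tris-HCl pH 8 for 120 min at 37° C. Non-specific binding was defined with 10 μM haloperidol. Values are % inhibition at 1 or 10 μM or Ki from five concentrations, read by filtration and scintillation counting.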

Ki [1]	Ki (Human σ1 receptor)	SMILES
500 to 5000 nM	< 500 nM	Clc1nn2c([C@H]3CCCN(Cc4ccccc4)C3)ccnc2c1CNCC1CCOCC1 [Example 214]
> 5000 nM	< 500 nM	Clc1nn2c([C@@H]3CCCN(Cc4ccccc4)C3)ccnc2c1CNCC1CCOCC1 [Example 215]
< 500 nM	< 500 nM	CC(=O)N1CCC(CNCc2c(Cl)nn3c([C@H]4CCCN(Cc5ccccc5)C4)ccnc23)CC1 [Example 216, (S)-1-(4-((((7-(1-Benzylpiperidin-3-yl)-2-chloropyrazolo[1,5-a]pyrimidin-3-yl)methyl)amino)methyl)piperidin-1-yl)ethan-1-one]
500 to 5000 nM	500 to 1000 nM	Cc1nn2c(C3CCCN(Cc4ccccc4)C3)ccnc2c1CNCC1C[C@@H](C)O[C@@H](C)C1 (stereo partly drawn) [Example 220, 1-(7-(1-Benzylpiperidin-3-yl)-2-methylpyrazolo[1,5-a]pyrimidin-3-yl)-N-(((2R,6S)-2,6-dimethyltetrahydro-2H-pyran-4-yl)methyl)methanamine]
> 5000 nM	< 500 nM	Cc1nn2c([C@@H]3CCCN(Cc4ccc(Cl)cc4)C3)ccnc2c1CNC[C@H]1CCOC(C)(C)C1 [Example 222]
> 5000 nM	< 500 nM	Cc1nn2c([C@H]3CCCN(Cc4ccc(Cl)cc4)C3)ccnc2c1CNC[C@@H]1CCOC(C)(C)C1 [Example 223]

The remaining lines, values behind:

SMILES	Ki [1]	Ki (Human σ1 receptor)
Cc1nn2c(C3CCCN(Cc4ccc(Cl)cc4)C3)ccnc2c1CNCC1CCN(C(N)=O)CC1 (stereo not shown) [Example 218, 4-((((7-(1-(4-Chlorobenzyl)piperidin-3-yl)-2-methylpyrazolo[1,5-a]pyrimidin-3-yl)methyl)amino)methyl)piperidine-1-carboxamide]	500 to 5000 nM	500 to 1000 nM
Cc1nn2c(C3CCCN(Cc4ccc(Cl)cc4)C3)ccnc2c1CN (stereo not shown) [Example 219, (7-(1-(4-Chlorobenzyl)piperidin-3-yl)-2-methylpyrazolo[1,5-a]pyrimidin-3-yl)methanamine]	500 to 5000 nM	500 to 1000 nM
Cc1nn2c([C@@H]3CCCN(Cc4ccc(Cl)cc4)C3)ccnc2c1CN[C@@H](C)C1CCOCC1 [Example 225, (S)—N-((7-((R)-1-(4-chlorobenzyl)piperidin-3-yl)-2-methylpyrazolo[1,5-a]pyrimidin-3-yl)methyl)-1-(tetrahydro-2H-pyran-4-yl)ethan-1-amine]	> 5000 nM	< 500 nM
Cc1nn2c([C@H]3CCCN(Cc4ccc(Cl)cc4)C3)ccnc2c1CN[C@H](C)C1CCOCC1 [Example 226, (R)—N-((7-((S)-1-(4-chlorobenzyl)piperidin-3-yl)-2-methylpyrazolo[1,5-a]pyrimidin-3-yl)methyl)-1-(tetrahydro-2H-pyran-4-yl)ethan-1-amine]	500 to 5000 nM	< 500 nM
Cc1nn2c([C@@H]3CCCN(Cc4ccc(Cl)cc4)C3)ccnc2c1CN(C)CC1CC1 [Example 227, (R)-1-(7-(1-(4-Chlorobenzyl)piperidin-3-yl)-2-methylpyrazolo[1,5-a]pyrimidin-3-yl)-N-(cyclopropylmethyl)-N-methylmethanamine]	> 5000 nM	< 500 nM
Cc1nn2c([C@H]3CCCN(Cc4ccc(Cl)cc4)C3)ccnc2c1CN(C)CC1CC1 [Example 228, (S)-1-(7-(1-(4-chlorobenzyl)piperidin-3-yl)-2-methylpyrazolo[1,5-a]pyrimidin-3-yl)-N-(cyclopropylmethyl)-N-methylmethanamine]	< 500 nM	< 500 nM
Cc1nn2c(C3CCCN(Cc4ccc(Cl)cc4)C3)ccnc2c1CN(C)Cc1c(F)cccc1F (stereo not shown) [Example 229, 1-(7-(1-(4-Chlorobenzyl)piperidin-3-yl)-2-methylpyrazolo[1,5-a]pyrimidin-3-yl)-N-(2,6-difluorobenzyl)-N-methylmethanamine]	500 to 5000 nM	500 to 1000 nM
Cc1nn2c(C3CCCN(Cc4ccc(Cl)cc4)C3)ccnc2c1CN(C)Cc1ccc(CO)cc1 (stereo not shown) [Example 230, (4-((((7-(1-(4-Chlorobenzyl)piperidin-3-yl)-2-methylpyrazolo[1,5-a]pyrimidin-3-yl)methyl)(methyl)amino)methyl)phenyl)methanol]	500 to 5000 nM	< 500 nM
